Holding throughout (type): functional, cell-based
The subject of one assay is HeLa. The assay can be described thus: Cytotoxicity against human HeLa cells after 24 hrs by MTT assay.
The subject of the next assay is DU-145. The assay can be described thus: Cytotoxicity against human DU145 cells after 24 hrs by MTT assay. (In general: Tetrazolium dyes change colour on reduction, which living cells bring about.)
In a further assay the test system is MCF7. The assay can be described thus: Cytotoxicity against human MCF7 cells after 24 hrs by MTT assay.
For another assay, the system named is A549. Description: Cytotoxicity against human A549 cells after 24 hrs by MTT assay.
[1] abbreviates: Homo sapiens, HeLa, 24 h, read-out: IC50.
Where [2] appears, read: Homo sapiens, DU-145, 24 h, read-out: IC50.
Where [3] appears, read: Homo sapiens, MCF7, 24 h, read-out: IC50.
Setting [4] is: Homo sapiens, A549, 24 h, read-out: IC50.

From ChEMBL document CHEMBL2434848, “Synthesis and biological evaluation of novel alkyl amide functionalized trifluoromethyl substituted pyrazolo[3,4-b]pyridine derivatives as potential anticancer agents” (Bioorg Med Chem Lett, 2013) come the findings set out here.

One may read the IC50 as the concentration that gives 50% inhibition. Consider `Nc1nn(CC(=O)NC2CCCCC2)c2nc(-c3ccccc3)cc(C(F)(F)F)c12`, for which the 50% inhibitory concentration (IC50) was 3.9 µM with HeLa (setting [1]), 3.1 µM in the assay on DU-145 (setting [2]), 5.2 µM in the assay on MCF7 (setting [3]) and 2.3 µM in the assay on A549 (setting [4]).
In the case of `O=c1[nH]cc(F)c(=O)[nH]1` [FLUOROURACIL], the IC50 in the assay with HeLa (setting [1]) is 1.1 µM; with DU-145 (setting [2]) it was 1.3 µM; in the assay on MCF7 (setting [3]) it was 1.2 µM; in the assay on A549 (setting [4]), 1.1 µM.
Turning to `Nc1nn(CC(=O)N2CCOCC2)c2nc(-c3ccccc3)cc(C(F)(F)F)c12`, the IC50 in the assay on HeLa (setting [1]) is 6.6 µM; in the assay with DU-145 (setting [2]), 5.1 µM; in the assay on MCF7 (setting [3]), 5.9 µM; in the assay on A549 (setting [4]), 5.4 µM.
As to `Nc1nn(CC(=O)NCc2ccco2)c2nc(-c3ccccc3)cc(C(F)(F)F)c12`, the half-inhibitory concentration (IC50) in the assay on HeLa (setting [1]) is 7.1 µM; in the assay with DU-145 (setting [2]), 5.6 µM; with MCF7 (setting [3]) it was 5 µM; with A549 (setting [4]), 7.7 µM.
Consider `Nc1nn(CC(=O)NCCO)c2nc(-c3ccccc3)cc(C(F)(F)F)c12`, for which the half-maximal inhibitory concentration (IC50) is 69.5 µM with HeLa (setting [1]), 96.3 µM in the assay with DU-145 (setting [2]), 78.2 µM in the assay on MCF7 (setting [3]) and 128 µM in the assay on A549 (setting [4]).
For the compound `Nc1nn(CC(=O)N2CCN(CCO)CC2)c2nc(-c3ccccc3)cc(C(F)(F)F)c12`, the half-inhibitory concentration (IC50) with HeLa (setting [1]) worked out at 2.9 µM; in the assay with DU-145 (setting [2]), 3.2 µM; in the assay on MCF7 (setting [3]) it was 15.6 µM; in the assay with A549 (setting [4]) it was 14.9 µM.
On the same counts, the results for `CCCNC(=O)Cn1nc(N)c2c(C(F)(F)F)cc(-c3ccccc3)nc21` are 15.9 µM, 15.5 µM, 14.9 µM and 16.5 µM.
Take `Nc1nn(CC(=O)N2CCCC2)c2nc(-c3ccccc3)cc(C(F)(F)F)c12`: the half-inhibitory concentration (IC50) with HeLa (setting [1]) amounted to 16.1 µM; in the assay on DU-145 (setting [2]), 12.2 µM; in the assay with MCF7 (setting [3]), 15.9 µM; in the assay with A549 (setting [4]), 18.7 µM.
In the case of `Nc1nn(CC(=O)N2CCN(c3ccccc3)CC2)c2nc(-c3ccccc3)cc(C(F)(F)F)c12`, the IC50 with HeLa (setting [1]) turned out to be 19.8 µM; in the assay with DU-145 (setting [2]), 18.9 µM; in the assay with MCF7 (setting [3]) it was 19.7 µM; with A549 (setting [4]), 20.7 µM.
For `CC(NC(=O)Cn1nc(N)c2c(C(F)(F)F)cc(-c3ccccc3)nc21)C(=O)O` (stereo not given), the IC50 in the assay on HeLa (setting [1]) came out at 20.1 µM; with DU-145 (setting [2]), 22.4 µM; in the assay with MCF7 (setting [3]), 19.9 µM; in the assay on A549 (setting [4]) it was 25.6 µM.
As for `Nc1nn(CC(=O)NCC(=O)O)c2nc(-c3ccccc3)cc(C(F)(F)F)c12`, the 50% inhibitory concentration (IC50) in the assay on HeLa (setting [1]) worked out at 19.1 µM; with DU-145 (setting [2]), 18.8 µM; in the assay on MCF7 (setting [3]), 21.2 µM; in the assay with A549 (setting [4]), 19.9 µM.
In the same order, the values of `NCCNC(=O)Cn1nc(N)c2c(C(F)(F)F)cc(-c3ccccc3)nc21` are 44.5 µM, 38.9 µM, 42.9 µM and 50.2 µM.
In the same order, the values of `Nc1nn(CC(=O)NCc2ccccc2)c2nc(-c3ccccc3)cc(C(F)(F)F)c12` are 17.1 µM, 15.6 µM, 16.3 µM and 17.3 µM.
In the same order, the values of `CCNC(=O)Cn1nc(N)c2c(C(F)(F)F)cc(-c3ccccc3)nc21` are 20.2 µM, 17.9 µM, 21.3 µM and 18.8 µM.
As for `Nc1nn(CC(=O)N2CCCCC2)c2nc(-c3ccccc3)cc(C(F)(F)F)c12`, the IC50 in the assay on HeLa (setting [1]) was determined as 2.9 µM; with DU-145 (setting [2]), 3.2 µM; with MCF7 (setting [3]) it was 4.1 µM; in the assay with A549 (setting [4]), 1.2 µM.
With `Nc1nn(CC(=O)NC2CC2)c2nc(-c3ccccc3)cc(C(F)(F)F)c12`, the IC50 entry in the assay with HeLa (hela), with DU-145 (du-145), in the assay with MCF7 (mcf7) and in the assay with A549 (a549) was “Not Active” throughout.
As to `NNC(=O)Cn1nc(N)c2c(C(F)(F)F)cc(-c3ccccc3)nc21`, the 50% inhibitory concentration (IC50) with HeLa (setting [1]) turned out to be 48.4 µM; with DU-145 (setting [2]), 52.4 µM; in the assay on MCF7 (setting [3]), 35.4 µM; with A549 (setting [4]), 53.6 µM.
Consider `CNC(=O)Cn1nc(N)c2c(C(F)(F)F)cc(-c3ccccc3)nc21`, for which the IC50 in the assay on HeLa (setting [1]) amounted to 12.2 µM; in the assay on DU-145 (setting [2]) it was 14.4 µM; with MCF7 (setting [3]), 11.8 µM; with A549 (setting [4]), 15.3 µM.
`Nc1nn(CC(=O)NC(Cc2ccccc2)C(=O)O)c2nc(-c3ccccc3)cc(C(F)(F)F)c12` (stereo not given): the IC50 worked out at 31.3 µM in the assay on HeLa (setting [1]), 32.3 µM in the assay with DU-145 (setting [2]), 42.1 µM in the assay on MCF7 (setting [3]) and 30.1 µM in the assay with A549 (setting [4]).
With `CN1CCN(C(=O)Cn2nc(N)c3c(C(F)(F)F)cc(-c4ccccc4)nc32)CC1`, the IC50 in the assay on HeLa (setting [1]) was determined as 17.7 µM; in the assay with DU-145 (setting [2]) it was 18.1 µM; in the assay with MCF7 (setting [3]), 16.6 µM; in the assay with A549 (setting [4]) it was 18.4 µM.
